From patent US7144887B2, “Substituted 1,2,3-triazolo[1,5-a]quinazolines for enhancing cognition” (Merck Sharp & Dohme Ltd., priority 1999, dated 2006)

Key:
[1] = in vivo; cited from earlier work

| SMILES | melting point | spatial learning in the Morris watermaze [1] |
| --- | --- | --- |
| Cc1cc(-c2nnn3c2nc(N2CCN(c4ccccn4)C(=O)C2)c2ccccc23)no1 | 266 °C (dec.) | – |
| Cc1cc(-c2nnn3c2nc(N2CCN(c4cccnc4)C(=O)C2)c2ccccc23)no1 | 247 °C (dec.) | – |
| Cc1cc(-c2nnn3c2nc(N2CCN(c4ccccc4)C(=O)C2)c2ccccc23)no1 | 263 °C (dec.) | – |
| COC(=O)c1cc2c(cn1)[nH]c1ccccc12 [β-CCM] | – | enhanced spatial learning |
